According to article PMC7689752 (Clinical Pharmacology and Therapeutics, 2020):

Tests used:
[1] = set-up: species or system human; settings: prediction for high-clearance drugs, not studied here
[2] = Integrated population pharmacokinetic model; format: in vivo, human; settings: for PNA on Cl: increase of clearance per hour of postnatal age, first 5 days of life; for Decrease of clearance during TH compared with normothermia: 33.5°C vs 36.5°C; for TEMP on Cl: reduction of clearance per °C of body temperature below 36.5°C
[3] = interindividual variability in clearance, common eta

N=C1N[C@H]2[C@H](CS[C@H]2CCCCC(=O)O)N1 [2‐iminobiotin]
Expected change of clearance with PNA [1]: The same prediction can be made

CC1(C)S[C@@H]2[C@H](NC(=O)[C@H](N)c3ccc(O)cc3)C(=O)N2[C@H]1C(=O)O [Amoxicillin, amoxicillin]
PNA on Cl [2]: 1.23 %/h

CC1(C)S[C@@H]2[C@H](NC(=O)Cc3ccccc3)C(=O)N2[C@H]1C(=O)O [Benzylpenicillin, benzylpenicillin]
PNA on Cl [2]: 1.23 %/h | Correlation in clearance with Amoxicillin [2, 3]: 35.5% | Correlation in clearance with HMG [2, 3]: 52.8% | Correlation in clearance with M6G [2, 3]: 27.4% | Correlation in clearance with Midazolam [2, 3]: 52.8% | Correlation in clearance with Morphine [2, 3]: 58.6% | Correlation in clearance with OHM [2, 3]: 53.4%

CNC(C)C1CCC(N)C(OC2C(N)CC(N)C(OC3OCC(C)(O)C(NC)C3O)C2O)O1 (stereo not shown) [Gentamicin, gentamicin]
PNA on Cl [2]: 1.23 %/h | Correlation in clearance with Amoxicillin [2, 3]: 27.9% | Correlation in clearance with Benzylpenicillin [2, 3]: 38.8% | Correlation in clearance with HMG [2, 3]: 41.4% | Correlation in clearance with M3G [2, 3]: 23.4% | Correlation in clearance with M6G [2, 3]: 21.5% | Correlation in clearance with Midazolam [2, 3]: 41.4% | Correlation in clearance with Morphine [2, 3]: 45.9% | Correlation in clearance with OHM [2, 3]: 41.8%

O=C(O)[C@H]1O[C@@H](OCc2ncc3n2-c2ccc(Cl)cc2C(c2ccccc2F)=NC3)[C@H](O)[C@@H](O)[C@@H]1O [HMG, hydroxymidazolam glucuronide]
PNA on Cl [2]: 1.23 %/h | Correlation in clearance with M3G [2, 3]: 31.9% | Correlation in clearance with M6G [2, 3]: 29.3% | Correlation in clearance with Midazolam [2, 3]: 56.4% | Correlation in clearance with Morphine [2, 3]: 62.6% | Correlation in clearance with OHM [2, 3]: 57.0%

CN1CC[C@]23c4c5ccc(O[C@@H]6O[C@H](C(=O)O)[C@@H](O)[C@H](O)[C@H]6O)c4O[C@H]2[C@@H](O)C=C[C@H]3[C@H]1C5 [M3G, morphine‐3‐glucuronide]
PNA on Cl [2]: 1.23 %/h | Correlation in clearance with Midazolam [2, 3]: 31.9% | Correlation in clearance with Morphine [2, 3]: 35.4% | Correlation in clearance with OHM [2, 3]: 32.2%

CN1CC[C@]23c4c5ccc(O)c4O[C@H]2[C@@H](O[C@@H]2O[C@H](C(=O)O)[C@@H](O)[C@H](O)[C@H]2O)C=C[C@H]3[C@H]1C5 [M6G, morphine‐6‐glucuronide]
PNA on Cl [2]: 1.23 %/h | Correlation in clearance with M3G [2, 3]: 94.8% | Correlation in clearance with Midazolam [2, 3]: 29.3% | Correlation in clearance with Morphine [2, 3]: 32.5% | Correlation in clearance with OHM [2, 3]: 29.6%

CCNCC(=O)Nc1c(C)cccc1C [MEGX, monoethylglycinexylidide]
PNA on Cl [2]: 1.23 %/h

Cc1ncc2n1-c1ccc(Cl)cc1C(c1ccccc1F)=NC2 [Midazolam, midazolam]
Decrease of clearance during TH compared with normothermia [2]: 20.5% | PNA on Cl [2]: 0.540 %/h | Correlation in clearance with Morphine [2, 3]: 62.2% | TEMP on Cl [2]: 6.83 %/°C

OCc1ncc2n1-c1ccc(Cl)cc1C(c1ccccc1F)=NC2 [OHM, 1‐hydroxymidazolam]
Decrease of clearance during TH compared with normothermia [2]: 20.5% | PNA on Cl [2]: 0.540 %/h | Correlation in clearance with Midazolam [2, 3]: 57.0% | Correlation in clearance with Morphine [2, 3]: 63.3% | TEMP on Cl [2]: 6.83 %/°C

CCC1(c2ccccc2)C(=O)NC(=O)NC1=O [Phenobarbital, phenobarbital]
PNA as covariate on clearance (in words) ([2]; recovery of organ function): No effect of PNA was identified

Oc1ncnc2[nH]ncc12 [allopurinol]
Expected change of clearance with PNA [1]: The same prediction can be made

CC[C@@H](C(N)=O)N1CCCC1=O [levetiracetam]
Expected change of clearance with PNA [1]: clearance increases strongly with PNA
